biological target: T1, human APJ receptor (Homo sapiens, UniProt P35414); experiment: Intracellular cAMP accumulation assay (APJ hcAMP, HTRF); type: cell-based; settings: APJ cAMP EC50 (nM), Table 1; HEK293 cells stably expressing human APJ, forskolin-stimulated cAMP
T1 construct: expressed in transfected cells
T1 sequence (P35414 1-380): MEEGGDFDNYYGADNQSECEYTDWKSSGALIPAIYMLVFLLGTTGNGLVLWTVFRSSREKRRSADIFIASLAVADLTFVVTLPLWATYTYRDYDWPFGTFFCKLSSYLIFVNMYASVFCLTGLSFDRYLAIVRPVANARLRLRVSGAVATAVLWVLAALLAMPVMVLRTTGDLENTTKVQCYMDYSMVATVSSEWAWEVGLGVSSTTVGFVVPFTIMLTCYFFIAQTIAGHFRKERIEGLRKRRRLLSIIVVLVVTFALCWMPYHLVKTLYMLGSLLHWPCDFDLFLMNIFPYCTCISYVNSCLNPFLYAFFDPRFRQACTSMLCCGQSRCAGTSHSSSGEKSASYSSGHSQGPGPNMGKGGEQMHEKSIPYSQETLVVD
Description: Intracellular cAMP Accumulation Assay
HEK293 cells stably expressing human APJ receptor were used to assess the activity of compounds. Cultured cells were detached and resuspended in the cAMP Homogeneous Time-Resolved Fluorescence (HTRF) assay buffer (Cisbio cat; #62AM4PEJ). […] Serial dilutions of a compound together with assay buffer containing […] and 2 μM forskolin were added to each well containing 5,000 cells and incubated for 30 minutes at room temperature. Subsequently, cAMP D2 reagent was added in the lysis buffer followed by the EuK antibody (Cisbio; cat #62AM4PEJ) and incubated for 60 min. The fluorescence emission ratio was measured using fluorometer. The intracellular cAMP concentrations (compound-stimulated inhibition of forskolin-mediated cAMP production) were calculated by extrapolation from a standard curve using known cAMP concentrations. The EC50 values were obtained by fitting the data to a sigmoidal concentration-response curve with variable slope.
The EC50 value of each compound is presented at the end of the example description.
The biological activity of the exemplified compounds of this invention determined by the assay described above is shown at the end of each example.

Row | Compound | EC50
1 | CCCCc1[nH]c(=O)c(C(=O)N(C)CCc2ccc(Cl)cc2)c(O)c1-c1c(OC)cccc1OC [Example 27, 6-butyl-N-[2-(4-chlorophenyl)ethyl]-5-(2,6-dimethoxyphenyl)-2,4-dihydroxy-N-methylpyridine-3-carboxamide] | 10 to 100 nM
2 | CCCCc1[nH]c(=O)c(C(=O)N2CC[C@H](c3ccccc3)C2)c(O)c1-c1c(OC)cccc1OC [Example 28, 6-butyl-5-(2,6-dimethoxyphenyl)-3-[(3R)-3-phenylpyrrolidine-1-carbonyl]pyridine-2,4-diol] | 0.01 to 10 nM
3 | CCCCc1[nH]c(=O)c(C(=O)N2CC[C@@H](c3ccccc3)C2)c(O)c1-c1c(OC)cccc1OC [Example 29, 6-butyl-5-(2,6-dimethoxyphenyl)-3-[(3S)-3-phenylpyrrolidine-1-carbonyl]pyridine-2,4-diol] | 0.01 to 10 nM
4 | CCCCc1[nH]c(=O)c(C(=O)N(CCC)Cc2ccccc2)c(O)c1-c1c(OC)cccc1OC [Example 33, N-benzyl-6-butyl-5-(2,6-dimethoxyphenyl)-2,4-dihydroxy-N-propylpyridine-3-carboxamide] | 100 to 300 nM

same assay, conditions: Table 1; HEK293 cells stably expressing human APJ, forskolin-stimulated cAMP; read-out: APJ cAMP EC50

Row | Compound | EC50
5 | CCOCc1nc(O)c(C(=O)N2CC[C@@H](c3ccccc3)C2)c(O)c1-c1c(OC)cccc1OC [Example 25, 5-(2,6-dimethoxyphenyl)-6-(ethoxymethyl)-3-[(3S)-3-phenylpyrrolidine-1-carbonyl]pyridine-2,4-diol] | 10 to 100 nM
6 | CCOCc1nc(O)c(C(=O)N2CC[C@H](c3ccccc3)C2)c(O)c1-c1c(OC)cccc1OC [Example 26, 5-(2,6-dimethoxyphenyl)-6-(ethoxymethyl)-3-[(3R)-3-phenylpyrrolidine-1-carbonyl]pyridine-2,4-diol] | 10 to 100 nM
7 | CCCCc1nc(O)c(C(=O)N2CCN(c3ccccc3)CC2)c(O)c1-c1c(OC)cccc1OC [Example 30, 6-butyl-5-(2,6-dimethoxyphenyl)-3-(4-phenylpiperazine-1-carbonyl)pyridine-2,4-diol] | 10 to 100 nM
8 | CCCCc1nc(O)c(C(=O)N2CCN(Cc3ccc(Cl)cc3)CC2)c(O)c1-c1c(OC)cccc1OC [Example 31, 6-butyl-3-{4-[(4-chlorophenyl)methyl]piperazine-1-carbonyl}-5-(2,6-dimethoxyphenyl)pyridine-2,4-diol] | 0.01 to 10 nM
9 | CCCCc1nc(O)c(C(=O)N2CCC(c3nc4ccccc4o3)CC2)c(O)c1-c1c(OC)cccc1OC [Example 32, 3-[4-(1,3-benzoxazol-2-yl)piperidine-1-carbonyl]-6-butyl-5-(2,6-dimethoxyphenyl)pyridine-2,4-diol] | 10 to 100 nM
10 | CCCCc1nc(O)c(C(=O)N2CC(c3cccc(Cl)c3)C2)c(O)c1-c1c(OC)cccc1OC [Example 34, 6-butyl-3-[3-(3-chlorophenyl)azetidine-1-carbonyl]-5-(2,6-dimethoxyphenyl)pyridine-2,4-diol] | 0.01 to 10 nM
11 | CCCCc1nc(O)c(C(=O)N2CCN(C(=O)c3ccccc3)CC2)c(O)c1-c1c(OC)cccc1OC [Example 41, 3-(4-benzoylpiperazine-1-carbonyl)-6-butyl-5-(2,6-dimethoxyphenyl)pyridine-2,4-diol] | 0.01 to 10 nM
12 | CCCCc1nc(O)c(C(=O)N2CCN(C(=O)c3cccc(F)c3)CC2)c(O)c1-c1c(OC)cccc1OC [Example 42, 6-butyl-5-(2,6-dimethoxyphenyl)-3-[4-(3-fluorobenzoyl)piperazine-1-carbonyl]pyridine-2,4-diol] | 0.01 to 10 nM
13 | CCCCc1nc(O)c(C(=O)N2CCN(Cc3ccc(F)cc3)CC2)c(O)c1-c1c(OC)cccc1OC [Example 43, 6-butyl-5-(2,6-dimethoxyphenyl)-3-{4-[(4-fluorophenyl)methyl]piperazine-1-carbonyl}pyridine-2.4-diol] | 0.01 to 10 nM
14 | CCCCc1nc(O)c(C(=O)N2CCN(Cc3ccccc3F)CC2)c(O)c1-c1c(OC)cccc1OC [Example 44, 6-butyl-5-(2,6-dimethoxyphenyl)-3-{4-[(2-fluorophenyl)methyl]piperiazine-1-carbonyl}pyridine-2.4-diol] | 0.01 to 10 nM
